Test results taken from patent US5614550A, “Amide and urea derivatives having anti-hypercholesteremic activity, their preparation and their therapeutic uses” (Sankyo Company, Limited, priority 1993, dated 1997).

Biological target: T1, ACAT in M.phi. (acyl-CoA: cholesterol acyl transferase) (Mus musculus, UniProt Q61263)
T1 construct: endogenous in cells; host or cells: primary adherent peritoneal macrophages from unstimulated female DDY mice
T1 sequence (Q61263 1-540): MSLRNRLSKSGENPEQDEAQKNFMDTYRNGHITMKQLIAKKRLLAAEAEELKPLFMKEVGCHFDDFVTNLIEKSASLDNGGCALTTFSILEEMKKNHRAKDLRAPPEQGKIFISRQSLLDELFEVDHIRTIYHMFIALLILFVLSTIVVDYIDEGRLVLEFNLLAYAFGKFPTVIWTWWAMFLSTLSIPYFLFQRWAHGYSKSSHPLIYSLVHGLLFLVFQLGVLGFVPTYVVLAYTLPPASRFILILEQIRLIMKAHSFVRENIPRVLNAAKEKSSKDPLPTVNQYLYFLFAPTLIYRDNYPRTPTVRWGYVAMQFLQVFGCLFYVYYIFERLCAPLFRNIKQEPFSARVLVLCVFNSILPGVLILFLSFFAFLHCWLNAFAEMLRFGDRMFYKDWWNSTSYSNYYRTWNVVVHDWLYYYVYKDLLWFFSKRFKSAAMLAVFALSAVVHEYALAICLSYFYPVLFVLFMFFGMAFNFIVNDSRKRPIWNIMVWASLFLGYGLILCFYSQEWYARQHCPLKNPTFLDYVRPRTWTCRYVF
Test: Inhibition of ACAT in mouse macrophages (M.phi.), cholesterol [14C]oleate formation
Type: cell-based
Design: dose or concentration left out as unconfirmed
Details: mouse peritoneal macrophages, beta-VLDL, 37° C., 3 hours
Procedure: Blood was obtained [using the anticoagulant ethylene diamine tetraacetic acid (5 mM)] from Japanese White rabbits which had been fed a 2% w/w cholesterol diet for 2 weeks and then fasted overnight prior to removing the blood. β-VLDL (d<1.006 g/ml) was isolated by ultracentrifugation from the plasma according to the method of Hatch and Lees [Hatch, F. T. and Lees, R. S., Adv. Lipid Res., 6, 1-68 (1968)] and dialyzed against 10 mM of a sodium phosphate buffer (pH 7.4) containing 150 mM sodium chloride at 4° C.
Peritoneal cells were harvested from unstimulated female DDY mice (body weight 20-30 g) in phosphate buffer saline (PBS) as described by Edelson and Cohn [Edelson, P. J. and Cohn, Z. A., 1976, IN VITRO Methods in Cell-Mediated and Tumor Immunity, eds, Bloon, B. R. and DAvid, J. R., (Academic, New York), 333-340.]. The fluid from the mice was pooled and the cells were collected by centrifugation at 400× g, for 10 minutes at 4° C., and washed once with PBS. The cells were resuspended in Dulbecco's modified Eagle's medium (DMEM) containing 10% (vol/vol) fetal calf serum (FCS), penicillin (100 units/ml), and streptomycin (100 μg/ml) at a final concentration of 3×10^6 cells per ml. Aliquots (1 ml) of this cell suspension were dispersed onto plastic Petri dishes (35×10 mm) and then incubated in a CO2 incubator (5% CO2 /95% air) at 37° C. for 2 hours. Each dish was washed twice with PBS without serum to remove nonadherent cells. The cells were washed twice with 2 ml of PBS and used for the experiment.
Inhibition of ACAT in M.phi. was determined according to the method described by Brown et al. [Brown, M. S., Goldstein J. L., Krieger, M., Ho, Y. K. and Anderson, R. G. W. (1979) J. Cell Biol., 82, 597-613.]. Cholesterol reacylation was initiated by adding β-VLDL (final concentration 50 μg/ml cholesterol), [^14 C]oleate-albumin complex (final concentrations: 0.2 mM oleate and 0.6 mg/ml albumin) and a test compound dissolved in ethanol into the M.phi. monolayer, and the preparation was incubated at 37° C. for 3 hours in a CO2 incubator. Cells were washed three times with PBS and cellular lipid was extracted with 1 ml hexane/isopropanol (3:2, vol/vol). A lipid extract was evaporated in a stream of nitrogen. Cholesterol [^14 C]oleated was seperated by thin layer chromatography through silica gel using a 85:15:1 by volume mixture of hexane, diethyl ether and acetic acid as developing solvents. The ACAT activity in M.phi. was determined by measuring the radioactivity and an inhibition rate (%) was calculated by comparing a control activity with those of the test compound at given concentrations.

| Compound | inhibition [%] |
| --- | --- |
| CC(C)c1cccc(C(C)C)c1NC(=O)CC1c2ccccc2Oc2ccccc21 [Compound A, reference compound] | 51 |
| CC(C)(C)c1ccc(CCC(=O)CC2CCCCC2)cc1NC(=O)CC1c2ccccc2Oc2ccccc21 [Example 13, N-[2-t-Butyl-5-(4-cyclohexyl-3-oxobutyl)phenyl]-2-(9H-xanthen-9-yl)acetamide] | 80 |
| CC(C)(C)c1ccc(CCC(O)CCC2CCCCC2)cc1NC(=O)CC1c2ccccc2Oc2ccccc21 (centres unmarked) [Example 26, N-[2-t-Butyl-5-(5-cyclohexyl-3-hydroxypentyl)phenyl]-2-(9H-xanthen-9-yl)acetamide] | 77 |
| CC(C)(C)c1ccc(CCC(O)CCCCC2CCCCC2)cc1NC(=O)CC1c2ccccc2Oc2ccccc21 (centres unmarked) [Example 44, N-[2-t-Butyl-5-(7-cyclohexyl-3-hydroxyheptyl)phenyl]-2-(9H-xanthen-9-yl)acetamide] | 89 |
| CC(C)(C)c1ccc(CCC(O)C2CCCCCC2)cc1NC(=O)CC1c2ccccc2Oc2ccccc21 (centres unmarked) [Example 98, N-[2-t-Butyl-5-(3-cycloheptyl-3-hydroxypropyl)phenyl]-2-(9H-xanthen-9-yl)acetamide] | 81 |
| CC(C)c1cccc(CCC(O)CCCC2CCCCC2)c1NC(=O)CC1c2ccccc2Oc2ccccc21 (centres unmarked) [Example 125, N-[2-Isopropyl-6-(6-cyclohexyl-3-hydroxyhexyl)phenyl]-2-(9H-xanthen-9-yl)acetamide] | 85 |
| CC(C)(C)c1ccc(CCC(O)CCOC2CCCCC2)cc1NC(=O)CC1c2ccccc2Oc2ccccc21 (centres unmarked) [Example 217, N-[2-t-Butyl-5-(5-cyclohexyloxy-3-hydroxypentyl)phenyl]-2-(9H-xanthen-9-yl)acetamide] | 74 |
| CC(C)(C)c1ccc(CCC(O)COCCC2CCCCC2)cc1NC(=O)CC1c2ccccc2Oc2ccccc21 (centres unmarked) [Example 219, N-{2-t-Butyl-5-[4-(2-cyclohexylethoxy)-3-hydroxybutyl]phenyl}-2-(9H-xanthen-9-yl)acetamide] | 86 |
